Results as given in the NIST ThermoML archive (doi:10.1021/je1005054).
± gives the expanded uncertainty stated by the source.

Conditions: Liquid, Calculated from knudsen effusion weight loss

- vapor or sublimation pressure (343 K): 0.0263 ± 0.0041 kPa
- vapor or sublimation pressure (347.9 K): 0.0372 ± 0.006 kPa
- vapor or sublimation pressure (348 K): 0.0374 ± 0.006 kPa
- vapor or sublimation pressure (352.9 K): 0.0523 ± 0.0086 kPa
- vapor or sublimation pressure (353 K): 0.0527 ± 0.0087 kPa
Structure (SMILES): O=C1CCCCCN1 [1-aza-2-cycloheptanone]
